Here are results for one substance from patent US20230212571A1, “COMPOSITIONS AND METHODS FOR DELIVERING POLYNUCLEOTIDES” (NeOnc Technologies, Inc., priority 2020, published 2023).

In one series the test system is BEC. Put plainly: RT-qPCR mRNA expression in control BEC. The series is classed as cell-based, human. The source says:
(§1) Human surgical specimens were obtained following written informed consent from patients in accordance with Declaration of Helsinki guidelines and the Institutional Review Board (HS-04B053), at Keck School of Medicine, USC. AVM-BECs were isolated from brain tissues of patients who underwent microsurgical AVM resection. Control BECs were isolated from the structurally normal […] of patients who underwent temporal lobectomy for intractable epilepsy. Endothelial cell (EC) isolation and culture were described^5,9. (Stapleton C J, Armstrong D L, Zidovetzki R, Liu C Y, Giannotta S L, Hofman F M. Thrombospondin-1 modulates the angiogenic phenotype of human cerebral arteriovenous malformation endothelial cells. Neurosurgery. 2011; 68(5):1342-1353) (Ferreira R, Santos T, Amar A, et al. Argonaute-2 promotes miR-18a entry in human brain endothelial cells. J Am Heart Assoc. 2014; 3(3):e000968) ECs were only used between passages 3-5. Experiments were performed under shear flow conditions (12 dyn/cm^2) to reproduce arterial flow^6. (Ferreira R, Santos T, Amar A, et al. MicroRNA-18a improves human cerebral arteriovenous malformation endothelial cell function. Stroke. 2014; 45(1):293-297). For hypoxic experiments, cells were cultured in a Galaxy 48R (Eppendorf) incubator at 3% O2. MicroRNAs were co-administered with Ago-2 to increase the cellular uptake of miR-18a^9 (Ferreira R, Santos T, Amar A, et al. Argonaute-2 promotes miR-18a entry in human brain endothelial cells. J Am Heart Assoc. 2014; 3(3):e000968) (FIG. 9). Methods regarding cell treatments and transfections were included in Data.
(§2) MiR-18a (hsa-miR-18a-5p, 40 nM, Dharmacon) or a scramble microRNA (40 nM, Dharmacon) in nuclease-free water was added with argonaute 2 (Ago-2, 0.4 nM, Abcam) as the microRNA carrier and stabilizer^9. (Ferreira R, Santos T, Amar A, et al. Argonaute-2 promotes miR-18a entry in human brain endothelial cells. J Am Heart Assoc. 2014; 3(3):e000968). No transfection reagent was used with miR-18a or scramble microRNA treatments. Recombinant human TSP-1 (R&D Systems) stock solution was prepared in PBS and further diluted in culture medium to be used at a final concentration of 1000 ng/mL. Cells were treated during 24 h for mRNA and 48 h for protein expression studies. NEO100 (NeOnc Technologies) stock was prepared in DMSO and used immediately or stored at −20° C.
The extraction and analysis of total mRNA and microRNAs were described^9,13. […] For mRNA studies, 02-Microglobulin (B2M) was measured for sample normalization. […]
(Real-time PCR tracks product formation cycle by cycle.)

Series [1] concerns AVM-BEC. Put plainly: Proteome Profiler Human Angiogenesis Array of AVM-BEC lysates. The series is classed as cell-based.
From the text: as §1, §2
The levels of angiogenesis-related proteins were analyzed using the Proteome Profiler™ Human Angiogenesis Array kit (R&D Systems) following the manufacturer's instructions. The protocol for western blot was published^10. (Marín-Ramos N I, Alonso D, Ortega-Gutiérrez S, et al. New inhibitors of angiogenesis with antitumor activity in vivo. J Med Chem. 2015; 58(9):3757-3766). Information about antibodies used was included in Table 1. Membranes were visualized and quantified using a C-Digit Blot scanner (Li-Cor) or a iBright CL1000 (Thermo Fisher Scientific).

The test system of series [2] is AVM-BEC. The series is classed as cell-based. As to the method:
The apoptotic and necrotic cell death was measured by flow cytometry using PI/Annexin V-Alexa Fluor 488 (ThermoFisher Scientific), following the manufacturer's instructions. After 24 h-treatments, cells were harvested, washed with cold PBS, and suspended in Annexin Binding Buffer (ThermoFisher Scientific) at a concentration of 1×10^6 cells/mL. Following addition of Annexin V and PI, cells were incubated at room temperature for 15 min in the ? dark, and additional 400 μL of 1× binding buffer was added to each sample. Positive controls of cell death were obtained treating cells with 50% ethanol. Ten thousand cells/sample were analyzed using a BD LSRII flow cytometer with the proper compensation controls and the FlowJo_V10 analysis software.
Cells were collected and analyzed for apoptosis, while supernatants were collected and analyzed for necrosis (Cell Death Detection ELISA^PLUS), and for PAI-1, VEGF (Quantikine ELISA Kit, R&D Systems) and TGF-β (Proteintech) protein content, following the manufacturers' instructions. Absorbance was measured using a Fluostar Omega microplate reader (BMG Labtech). Data were normalized to kit controls and number of producing cells.

A further series relates to BMP4 3′UTR. Description: BMP4 3′UTR luciferase reporter in ECs. In kind it is cell-based, human. Conditions: vs untreated or scramble microRNA, n=6. The protocol:
Plasmid constructs pcDNA3-ALK2^WT (Addgene #80870) and pcDNA3-ALK2^Q207D (Addgene #80871) were a gift from Aristidis Moustakas^7. (Meyer B, Schaller C, Frenkel C, Ebeling B, Schramm J. Distributions of local oxygen saturation and its response to changes of mean arterial blood pressure in the cerebral cortex adjacent to arteriovenous malformations. Stroke. 1999; 30(12):2623-2630) 10^4 AVM-BEC were seeded 24 h before transfection. The plasmid vector containing the 3′ untranslated region (3′UTR) of human BMP4, pRP [Exp]-Puro-CMV>Luciferase:{hBMP4_3′UTR}, was constructed and packaged by VectorBuilder. The vector ID is VB200205-1078zdv, which can be used to retrieve detailed information about the vector on vectorbuilder.com. Transient transfections were performed with Lipofectamine RNAiMax (Thermo Fisher Scientific) according to the manufacturer's instructions. After 4 h, medium was replaced by fresh medium containing microRNA.
For the experiments regarding the direct binding of miR-18a to BMP4 (information about the plasmid was included in Methods), the luciferase activity of the hBMP4 3′UTR was read in a Varioskan™ LUX multimode microplate reader (Thermo Fisher Scientific).

Take “hsa-miR-18a-5p (UAGGUGCAUCUAGUGCAGAUAG; chemistry not given here; listed as Homo sapiens) [small non-coding RNA molecule involved in post-transcriptional regulation of gene expression; Dharmacon]”: the “ALK1 mRNA expression” value in the series on BEC (P=0.0482) was “decreased”. Further, in the series with BEC (P>0.05), the “BMP4, ALK2, ALK5 and MGP mRNA expression” value is on record as “No significant differences”. In addition, the HIF-1α expression result in the series with BEC (hypoxia 3% O2) is “remained unaltered”. For the same substance, the HIF-1α expression result with BEC (normoxia, P>0.9999) was “without affecting BEC”. Further, the “bFGF levels, decrease compared to scramble miR-treated AVM-BEC” value in the series with AVM-BEC [1] (shear flow 12 dyn/cm2, miR-18a 40 nM with Ago-2 0.4 nM, n=1) came to 2 fold. Moreover, the “IGFBP-1 levels, upregulation compared to scramble miR-treated AVM-BEC” value with AVM-BEC [1] (shear flow, miR-18a 40 nM with Ago-2, n=1) amounted to 2 fold. Further, in the series with AVM-BEC [1] (vs scramble miR, n=1), the “TSP-1 protein levels in AVM-BEC lysates” value is reported as “did not observe any relevant differences”, the “downregulation of PAI-1” value worked out at 20%, the “upregulation of endothelin-1 (ET-1)” value is more than 20% and the “upregulation of pentraxin 3 (PTX3)” value is on record as more than 20%. Besides, in the series on AVM-BEC [2], the “cell death (apoptosis, necrosis)” value is “does not increase cell death”. Moreover, the “BMP4-3′-UTR-Luc activity” value with BMP4 3′UTR is “significantly (P<0.001) decreased”.
